Data on 4 compounds can be found in patent US20240270762A1, “PENICILLIN-BINDING PROTEIN INHIBITORS” (priority 2021, published 2024).

For assay [1], the target named is T1, PBP2 from Neisseria gonorrhoeae (FA19) (Neisseria gonorrhoeae, UniProt P08149).
T1 construct: made in house
In words: Bocillin-FL fluorescence polarization competition binding, N. gonorrhoeae PBP2. Particulars: fluorescence polarization competition binding assay using Bocillin-FL, read-out: N. gonorrhoeae PBP2 Potency. The text has this:
To determine the ability of boronic acid-based test PBP inhibitors to bind Penicillin Binding Proteins (PBPs), Bocillin-FL (fluorescently-labeled penicillin V; ThermoFisher Scientific) was used in a fluorescence polarization (FP) competition binding assay to assess inhibitor binding to PBP3 from Escherichia coli (K-12), PBP3 from Pseudomonas aeruginosa (PAO1), PBP1a and PBP3 from Acinetobacter baumannii (ATCC 19606), and PBP2 from Neisseria gonorrhoeae (FA19). PBPs were cloned and purified as described previously (E. coli PBP3, King, D. T, et al., ACS Infectious Diseases 2015, 1, 175-184; P. aeruginosa PBP3, Han et. al., PNAS 2010, 107 (51), 22002-22007; A. baumannii PBPs, Penwell et. al., Antimicrob. Agents Chemother. 2015, 59 (3), 1680-1689; N. gonorrhoeae PBP2, Singh et. al., J. Biol. Chem. 2019, 294 (38), 14020-14032). To establish assay conditions for competition binding, enzyme titration/saturation binding experiments were initially performed. Bocillin-FL was prepared at 0.2 μM in a buffer comprised of 50 mM Hepes (pH 8.0), 300 mM NaCl and 10% (v/v) glycerol for reactions with E. coli, P. aeruginosa and N. gonorrhoeae PBPs, and 25 mM Tris (pH 8.0), 200 mM NaCl, 10% (v/v) glycerol and 0.005% (v/v) Tween 20 for reactions with A. baumannii PBPs. Saturation binding was performed by mixing 40 μl of PBP solutions ranging in concentrations from 0-24 μM with 40 μl of the 0.2 μM Bocillin-FL solution, in individual wells of a black 384-well microplate. FP was measured immediately upon mixing (Excitation, 490 nm; Emission, 520 nm; g-factor, 0.96), using a Cytation3 (BioTek) microplate reader and measured continuously for up to 120 minutes. […] The competition binding assay (80 μl final volume) was validated using beta-lactams and PBPs at final concentrations of: 1.5 μM for E. coli PBP3; 0.75 μM for P. aeruginosa PBP3; 1 μM for A. baumannii PBP1a; 0.2 μM for A. baumannii PBP3; and 0.25 μM for N. gonorrhoeae PBP2. Bocillin-FL was at 0.1 μM (0.05 μM with A. baumannii PBP1a) and beta-lactam concentrations ranged from 0-1,000 μM. E. coli PBP3 was incubated with increasing concentrations of ampicillin in a black 384-well microplate (Corning) for 30 minutes. P. aeruginosa PBP3 was incubated for 15 minutes with aztreonam, whereas A. baumannii PBP1a and PBP3 were incubated for 15 minutes with meropenem, and then Bocillin-FL was added followed immediately by the FP measurement for up to 60 minutes. […] The beta-lactam potency was reported as the concentration of beta-lactam required to reduce the amount of PBP bound-Bocillin-FL by 50% (EC50). […] Binding assays for boronic acid PBP inhibitors were performed in an identical fashion for the respective PBPs.
For orientation: Polarisation of emitted light reports the rotation of a fluorescent probe.

For assay [2], the system named is N. gonorrhoeae FA1090. In words: Liquid broth MIC in Fastidious broth. Conditions: Neisseria gonorrhoeae, FA1090, read-out: Minimum Inhibitory Concentration (MIC), N. gonorrhoeae FA 1090.
Assay [3] deals with N. gonorrhoeae MS11. Put plainly: Liquid broth MIC in Fastidious broth. Conditions: Neisseria gonorrhoeae, MS11, read-out: Minimum Inhibitory Concentration (MIC), N. gonorrhoeae MS11.
The subject of assay [4] is N. gonorrhoeae WHO G. In words: Liquid broth MIC in Fastidious broth. Particulars: Neisseria gonorrhoeae, read-out: Minimum Inhibitory Concentration (MIC), N. gonorrhoeae WHO G.
For assay [5], the system named is N. gonorrhoeae WHO L. In words: Liquid broth MIC in Fastidious broth. Particulars: Neisseria gonorrhoeae, read-out: Minimum Inhibitory Concentration (MIC), N. gonorrhoeae WHO L.
For assay [6], the system named is N. gonorrhoeae WHO K. In words: Liquid broth MIC in Fastidious broth. Conditions: Neisseria gonorrhoeae, read-out: Minimum Inhibitory Concentration (MIC), N. gonorrhoeae WHO K.
Assay [7] deals with N. gonorrhoeae WHO Z. In words: Liquid broth MIC in Fastidious broth. Particulars: Neisseria gonorrhoeae, read-out: Minimum Inhibitory Concentration (MIC), N. gonorrhoeae WHO Z.
Experimental: Additional antibacterial testing of the series was performed in 8 reference strains of N. gonorrhoeae (ATCC 49226, FA1090, MS 11, WHO G, WHO L, WHO M, WHO K, WHO X, WHO Z, WHO Q, CDC-0197). ATCC 49226, FA1090, MS11, WHO G, WHO L, and WHO M produce wild type or wild-type like PBP2. WHO K, WHO X, WHO Z, WHO Q, and CDC-0197 produce mosaic PBP2. Liquid broth-based assays were used for antibacterial testing of PBP inhibitors in Neisseria gonorrhoeae. Briefly, cryo-preserved bacterial cultures of clinical strains were streaked for isolation on Chocolate Agar (72 g/L (2×) GC Agar Base (BD #228950) and 2% (2×) Hemoglobin was autoclaved at 121° C. for 20 minutes to sterilize. Once cooled to ˜50° C. the 2×GC Agar Base and 2× Hemoglobin solutions are combined and 1% IsoVitaleX Enrichment (BD #211876) was added to the solution). Strains were incubated at 36° C. and 5% CO2 to allow growth of colonies, 24 hours before inoculum preparation. 2-fold serial dilutions of test compounds were conducted in a 96 well plate with a final volume of 75 μL per well at 2-fold the final desired concentration in Fastidious broth (Remel #R07664). For preparation of assay inoculum, a direct suspension was prepared by aseptically swabbing 10-15 colonies from agar plates into culture tubes containing 2 mL of fresh sterile saline. After the dilution plates were set up, direct suspensions were then diluted in a cuvette containing sterile saline and the optical density was measured at 600 nm. Inocula were diluted such that 75 μL of this culture in Fastidious broth results in a starting bacterial concentration of 5×10^5 CFU/mL when added to the dilution plates. The plates were incubated for ˜24 hours at 36° C. and 5% CO2.

Values after ≈ are worked out from the molar mass of the structure shown.

T1 sequence (P08149 whole entry): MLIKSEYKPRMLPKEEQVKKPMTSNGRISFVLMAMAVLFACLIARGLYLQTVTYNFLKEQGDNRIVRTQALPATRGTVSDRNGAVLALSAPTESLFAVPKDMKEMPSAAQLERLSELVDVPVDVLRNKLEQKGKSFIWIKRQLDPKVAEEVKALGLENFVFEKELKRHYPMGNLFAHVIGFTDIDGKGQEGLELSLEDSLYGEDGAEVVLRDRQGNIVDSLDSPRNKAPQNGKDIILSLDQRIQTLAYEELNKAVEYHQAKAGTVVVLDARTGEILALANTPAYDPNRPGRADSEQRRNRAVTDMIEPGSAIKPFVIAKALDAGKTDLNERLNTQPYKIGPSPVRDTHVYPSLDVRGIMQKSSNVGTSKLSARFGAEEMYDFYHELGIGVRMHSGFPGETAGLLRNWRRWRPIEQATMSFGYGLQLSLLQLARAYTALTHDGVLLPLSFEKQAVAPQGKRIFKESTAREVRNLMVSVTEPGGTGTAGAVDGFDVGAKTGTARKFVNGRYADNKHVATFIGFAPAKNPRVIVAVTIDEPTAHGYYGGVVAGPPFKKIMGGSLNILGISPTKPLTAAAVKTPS

On to `O=C(O)c1c(F)ccc2c1OB(O)[C@@H](NC(=O)C(NC(=O)N1CCN(Cc3ccc(O)c(O)c3Cl)C(=O)C1=O)c1ccc(P(=O)(O)O)c(F)c1)C2` (stereo partly drawn) [Example 23, (3R)-3-(2-(4-(2-chloro-3,4-dihydroxybenzyl)-2,3-dioxopiperazine-1-carboxamido)-2-(3-fluoro-4-phosphonophenyl)acetamido)-7-fluoro-2-hydroxy-3,4-dihydro-2H-benzo[e][1,2]oxaborinine-8-carboxylic acid], for which the EC50 in assay [1] was less than 10 µM. In addition, the MIC in assay [2] was less than 1 µg/mL; in assay [3], less than 1 µg/mL; in assay [4] it was less than 1 µg/mL; in assay [5], 4 to 8 µg/mL (≈ 5.31 to 10.6 µM); in assay [6], less than 1 µg/mL; in assay [7], less than 1 µg/mL.

Consider `O=C(O)c1cccc2c1OB(O)[C@@H](NC(=O)C(NC(=O)N1CCN(Cc3ccc(O)c(O)c3Cl)C(=O)C1=O)c1ccc(P(=O)(O)O)cc1)C2` (stereo partly drawn) [Example 24, (3R)-3-(2-(4-(2-chloro-3,4-dihydroxybenzyl)-2,3-dioxopiperazine-1-carboxamido)-2-(4-phosphonophenyl)acetamido)-2-hydroxy-3,4-dihydro-2H-benzo[e][1,2]oxaborinine-8-carboxylic acid], for which the EC50 in assay [1] is less than 10 µM. Also, the MIC was less than 1 µg/mL in assay [2]; less than 1 µg/mL in assay [3]; less than 1 µg/mL in assay [4]; 4 to 8 µg/mL (≈ 5.58 to 11.2 µM) in assay [5]; 4 to 8 µg/mL (≈ 5.58 to 11.2 µM) in assay [6]; 1 to 2 µg/mL (≈ 1.4 to 2.79 µM) in assay [7].

On to `O=C(O)c1c(F)ccc2c1OB(O)[C@@H](NC(=O)C(NC(=O)N1CCN(Cc3cc(F)c(O)c(O)c3Cl)C(=O)C1=O)c1ccc(P(=O)(O)O)cc1)C2` (stereo partly drawn) [Example 45, (3R)-3-(2-(4-(2-chloro-5-fluoro-3,4-dihydroxybenzyl)-2,3-dioxopiperazine-1-carboxamido)-2-(4-phosphonophenyl)acetamido)-7-fluoro-2-hydroxy-3,4-dihydro-2H-benzo[e][1,2]oxaborinine-8-carboxylic acid], for which the EC50 in assay [1] is less than 10 µM. For the same compound, the MIC is less than 1 µg/mL in assay [2]; less than 1 µg/mL in assay [3]; less than 1 µg/mL in assay [4]; 4 to 8 µg/mL (≈ 5.31 to 10.6 µM) in assay [5]; 1 to 2 µg/mL (≈ 1.33 to 2.66 µM) in assay [6]; 1 to 2 µg/mL (≈ 1.33 to 2.66 µM) in assay [7].

With `O=C(O)c1c(F)ccc2c1OB(O)[C@@H](NC(=O)C(NC(=O)N1CCN(Cc3ccc(O)c(O)c3Cl)C1=O)c1ccc(P(=O)(O)O)cc1)C2` (stereo partly drawn) [Example 46, (3R)-3-(2-(3-(2-chloro-3,4-dihydroxybenzyl)-2-oxoimidazolidine-1-carboxamido)-2-(4-phosphonophenyl)acetamido)-7-fluoro-2-hydroxy-3,4-dihydro-2H-benzo[e][1,2]oxaborinine-8-carboxylic acid], the EC50 in assay [1] is less than 10 µM. Moreover, the MIC in assay [2] was less than 1 µg/mL; in assay [3], less than 1 µg/mL; in assay [4], less than 1 µg/mL; in assay [5], 4 to 8 µg/mL (≈ 5.66 to 11.3 µM); in assay [6], 1 to 2 µg/mL (≈ 1.41 to 2.83 µM); in assay [7] it was less than 1 µg/mL.
